According to the supplement of paper PMC10307832:

Assays:
Assay in all cases: relative viability (nuclei count vs DMSO), 5 days (fraction); higher = more cells survive
[1] = compound: CC1=CC=C(C=C1)C(=O)CN2C3=C(CCCC3)SC2=N [Pifithrin_alpha] + Nc1nc2[nH]cc(CCc3ccc(C(=O)N[C@@H](CCC(=O)O)C(=O)O)cc3)c2c(=O)[nH]1 [Pemetrexed] (partner 0.2 µM)
In short: (§1)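 Each reported value is a median over duplicate plates. It expresses relative viability: treated-well nuclei count divided by vehicle-well nuclei count. Lung cancer cell lines in 1536-well plates were dosed by pin tool a day after seeding, alone with one drug or with a fixed anchor-drug dose plus five library-drug doses (not always all listed) in √10 steps, and nuclei were counted after 5 days.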

[2] = compound: Nc1nc(Nc2ccc3c(c2)CC[C@@H](N2CCCC2)CC3)nn1-c1cc2c(nn1)-c1ccccc1CCC2 [Bemcentinib] + Cc1cc(Nc2cc(N3CCN(C)CC3)nc(Sc3ccc(NC(=O)C4CC4)cc3)n2)n[nH]1 [Tozasertib] (partner 0.1 µM)
In short: as §1

[3] = compound: CC1=CC=C(C=C1)C(=O)CN2C3=C(CCCC3)SC2=N [Pifithrin_alpha] + O=C(CCCCCCC(=O)Nc1ccccc1)NO [Vorinostat] (partner 1 µM)
In short: as §1

[4] = compound: Nc1nc(Nc2ccc3c(c2)CC[C@@H](N2CCCC2)CC3)nn1-c1cc2c(nn1)-c1ccccc1CCC2 [Bemcentinib] + O=C(c1cc(Cc2n[nH]c(=O)c3ccccc23)ccc1F)N1CCN(C(=O)C2CC2)CC1 [Olaparib] (partner 8 µM)
In short: as §1

## SK-LU-1
[1]; first compound 1 µM
  relative viability: 1.03
[1]; first compound 3.162 µM
  relative viability: 1.03
[1]; first compound 10 µM
  relative viability: 1.07
[1]; first compound 31.62 µM
  relative viability: 0.752
[1]; first compound 100 µM
  relative viability: 1.14
[2]; first compound 0.04 µM
  relative viability: 0.342
[2]; first compound 0.1265 µM
  relative viability: 0.363
[2]; first compound 0.4 µM
  relative viability: 0.283
[2]; first compound 1.265 µM
  relative viability: 0.367
[2]; first compound 4 µM
  relative viability: 0.335
[3]; first compound 1 µM
  relative viability: 0.94
[3]; first compound 3.162 µM
  relative viability: 0.862
[3]; first compound 10 µM
  relative viability: 0.774
[3]; first compound 31.62 µM
  relative viability: 0.676
[3]; first compound 100 µM
  relative viability: 0.75
[4]; first compound 0.04 µM
  relative viability: 0.456
[4]; first compound 0.1265 µM
  relative viability: 0.569
[4]; first compound 0.4 µM
  relative viability: 0.452
[4]; first compound 1.265 µM
  relative viability: 0.47
[4]; first compound 4 µM
  relative viability: 0.488

## LC-2-ad
[1]; first compound 1 µM
  relative viability: 0.307
[1]; first compound 3.162 µM
  relative viability: 0.256
[1]; first compound 10 µM
  relative viability: 0.293
[1]; first compound 31.62 µM
  relative viability: 0.263
[1]; first compound 100 µM
  relative viability: 0.251
[2]; first compound 0.04 µM
  relative viability: 0.451
[2]; first compound 0.1265 µM
  relative viability: 0.478
[2]; first compound 0.4 µM
  relative viability: 0.451
[2]; first compound 1.265 µM
  relative viability: 0.486
[2]; first compound 4 µM
  relative viability: 0.442
[3]; first compound 1 µM
  relative viability: 0.692
[3]; first compound 3.162 µM
  relative viability: 0.719
[3]; first compound 10 µM
  relative viability: 0.689
[3]; first compound 31.62 µM
  relative viability: 0.465
[3]; first compound 100 µM
  relative viability: 0.521
[4]; first compound 0.04 µM
  relative viability: 0.719
[4]; first compound 0.1265 µM
  relative viability: 0.676
[4]; first compound 0.4 µM
  relative viability: 0.767
[4]; first compound 1.265 µM
  relative viability: 0.711
[4]; first compound 4 µM
  relative viability: 0.655

## NCI-H23
[1]; first compound 1 µM
  relative viability: 0.679
[1]; first compound 3.162 µM
  relative viability: 0.609
[1]; first compound 10 µM
  relative viability: 0.734
[1]; first compound 31.62 µM
  relative viability: 0.479
[1]; first compound 100 µM
  relative viability: 0.547
[2]; first compound 0.04 µM
  relative viability: 0.389
[2]; first compound 0.1265 µM
  relative viability: 0.632
[2]; first compound 0.4 µM
  relative viability: 0.327
[2]; first compound 1.265 µM
  relative viability: 0.407
[2]; first compound 4 µM
  relative viability: 0.366
[3]; first compound 1 µM
  relative viability: 0.457
[3]; first compound 3.162 µM
  relative viability: 0.4
[3]; first compound 10 µM
  relative viability: 0.604
[3]; first compound 31.62 µM
  relative viability: 0.343
[3]; first compound 100 µM
  relative viability: 0.584
[4]; first compound 0.04 µM
  relative viability: 0.246
[4]; first compound 0.1265 µM
  relative viability: 0.338
[4]; first compound 0.4 µM
  relative viability: 0.381
[4]; first compound 1.265 µM
  relative viability: 0.308
[4]; first compound 4 µM
  relative viability: 0.298

## NCI-H2228
[1]; first compound 1 µM
  relative viability: 0.406
[1]; first compound 3.162 µM
  relative viability: 0.416
[1]; first compound 10 µM
  relative viability: 0.335
[1]; first compound 31.62 µM
  relative viability: 0.252
[1]; first compound 100 µM
  relative viability: 0.298
[2]; first compound 0.04 µM
  relative viability: 0.182
[2]; first compound 0.1265 µM
  relative viability: 0.249
[2]; first compound 0.4 µM
  relative viability: 0.216
[2]; first compound 1.265 µM
  relative viability: 0.251
[2]; first compound 4 µM
  relative viability: 0.271
[3]; first compound 1 µM
  relative viability: 0.831
[3]; first compound 3.162 µM
  relative viability: 0.663
[3]; first compound 10 µM
  relative viability: 0.721
[3]; first compound 31.62 µM
  relative viability: 0.387
[3]; first compound 100 µM
  relative viability: 0.374
[4]; first compound 0.04 µM
  relative viability: 0.379
[4]; first compound 0.1265 µM
  relative viability: 0.616
[4]; first compound 0.4 µM
  relative viability: 0.593
[4]; first compound 1.265 µM
  relative viability: 0.707
[4]; first compound 4 µM
  relative viability: 0.749

## SW 1573
[1]; first compound 3.162 µM
  relative viability: 1.03
[1]; first compound 10 µM
  relative viability: 0.964
[1]; first compound 31.62 µM
  relative viability: 0.593
[1]; first compound 100 µM
  relative viability: 0.808
[2]; first compound 0.04 µM
  relative viability: 0.18
[2]; first compound 0.1265 µM
  relative viability: 0.166
[2]; first compound 0.4 µM
  relative viability: 0.174
[2]; first compound 1.265 µM
  relative viability: 0.129
[2]; first compound 4 µM
  relative viability: 0.194
[3]; first compound 3.162 µM
  relative viability: 0.787
[3]; first compound 10 µM
  relative viability: 0.719
[3]; first compound 31.62 µM
  relative viability: 0.498
[3]; first compound 100 µM
  relative viability: 0.82
[4]; first compound 0.04 µM
  relative viability: 0.504
[4]; first compound 0.1265 µM
  relative viability: 0.437
[4]; first compound 0.4 µM
  relative viability: 0.558
[4]; first compound 1.265 µM
  relative viability: 0.465
[4]; first compound 4 µM
  relative viability: 0.438

## HCC-15
[1]; first compound 1 µM
  relative viability: 0.225
[1]; first compound 3.162 µM
  relative viability: 0.206
[1]; first compound 10 µM
  relative viability: 0.207
[1]; first compound 31.62 µM
  relative viability: 0.206
[1]; first compound 100 µM
  relative viability: 0.209
[2]; first compound 0.04 µM
  relative viability: 0.381
[2]; first compound 0.1265 µM
  relative viability: 0.488
[2]; first compound 0.4 µM
  relative viability: 0.401
[2]; first compound 1.265 µM
  relative viability: 0.365
[2]; first compound 4 µM
  relative viability: 0.392
[3]; first compound 1 µM
  relative viability: 0.871
[3]; first compound 3.162 µM
  relative viability: 0.833
[3]; first compound 10 µM
  relative viability: 0.8
[3]; first compound 31.62 µM
  relative viability: 0.676
[3]; first compound 100 µM
  relative viability: 0.646
[4]; first compound 0.04 µM
  relative viability: 0.7
[4]; first compound 0.1265 µM
  relative viability: 0.712
[4]; first compound 0.4 µM
  relative viability: 0.771
[4]; first compound 1.265 µM
  relative viability: 0.655
[4]; first compound 4 µM
  relative viability: 0.748

## H3255
[1]; first compound 1 µM
  relative viability: 0.507
[1]; first compound 3.162 µM
  relative viability: 0.533
[1]; first compound 10 µM
  relative viability: 0.537
[1]; first compound 31.62 µM
  relative viability: 0.532
[1]; first compound 100 µM
  relative viability: 0.505
[2]; first compound 0.04 µM
  relative viability: 0.566
[2]; first compound 0.1265 µM
  relative viability: 0.678
[2]; first compound 0.4 µM
  relative viability: 0.619
[2]; first compound 1.265 µM
  relative viability: 0.782
[2]; first compound 4 µM
  relative viability: 0.655
[3]; first compound 1 µM
  relative viability: 0.682
[3]; first compound 3.162 µM
  relative viability: 0.818
[3]; first compound 10 µM
  relative viability: 0.788
[3]; first compound 31.62 µM
  relative viability: 0.497
[3]; first compound 100 µM
  relative viability: 0.703
[4]; first compound 0.04 µM
  relative viability: 0.533
[4]; first compound 0.1265 µM
  relative viability: 0.589
[4]; first compound 0.4 µM
  relative viability: 0.537
[4]; first compound 1.265 µM
  relative viability: 0.599
[4]; first compound 4 µM
  relative viability: 0.491

## SK-MES-1
[1]; first compound 1 µM
  relative viability: 0.84
[1]; first compound 3.162 µM
  relative viability: 0.845
[1]; first compound 10 µM
  relative viability: 0.863
[1]; first compound 31.62 µM
  relative viability: 0.494
[1]; first compound 100 µM
  relative viability: 0.623
[2]; first compound 0.04 µM
  relative viability: 0.977
[2]; first compound 0.1265 µM
  relative viability: 0.908
[2]; first compound 0.4 µM
  relative viability: 1.09
[2]; first compound 1.265 µM
  relative viability: 1.03
[2]; first compound 4 µM
  relative viability: 0.968
[3]; first compound 1 µM
  relative viability: 1.01
[3]; first compound 3.162 µM
  relative viability: 0.95
[3]; first compound 10 µM
  relative viability: 0.959
[3]; first compound 31.62 µM
  relative viability: 0.591
[3]; first compound 100 µM
  relative viability: 0.852
[4]; first compound 0.04 µM
  relative viability: 0.833
[4]; first compound 0.1265 µM
  relative viability: 0.771
[4]; first compound 0.4 µM
  relative viability: 0.734
[4]; first compound 1.265 µM
  relative viability: 0.823
[4]; first compound 4 µM
  relative viability: 0.682
